Values quoted from earlier work as cited in US8962267B1, “Method for predicting the response of non-small cell lung cancer patients to targeted pharmacotherapy” (Pamgene B.V., priority 2009, dated 2015).

Test system: NSCLC
Conditions: second-line treatment of NSCLC patients, clinical trials, versus control

Compound	overall survival [months]
CC(=O)O[C@@]12CO[C@@H]1C[C@H](O)[C@@]1(C)C(=O)[C@H](O)C3=C(C)[C@@H](OC(=O)[C@H](O)[C@@H](NC(=O)OC(C)(C)C)c4ccccc4)C[C@@](O)([C@@H](OC(=O)c4ccccc4)[C@H]21)C3(C)C [docetaxal, docetaxel]	7.5
C#Cc1cccc(Nc2ncnc3cc(OCCOC)c(OCCOC)cc23)c1 [erlotinib]	6.7
Nc1nc2[nH]cc(CCc3ccc(C(=O)N[C@@H](CCC(=O)O)C(=O)O)cc3)c2c(=O)[nH]1 [pemetrexed]	8.3
